Reference: US10669272B2, “Substituted naphthyridinone compounds useful as T cell activators” (BRISTOL-MYERS SQUIBB COMPANY, priority 2018, dated 2020)
Where two headings read alike, the source gives them in different places.

What was measured:
[1] = target: T1, human DGKζ (Homo sapiens, UniProt Q13574); assay: DGKζ LIPGLO assay (extruded liposome substrate), in vitro DGK inhibition; format: biochemical; conditions: read-out: DGKz LIPGLO IC50
T1 construct: TVMV protease cleavage site (C); Hexa-His (C); made in house; host or cells: Sf9 insect cells (baculovirus, Bac-to-Bac)

[2] = tested on: Human venous whole blood; assay: Human whole blood IFN-γ assay; format: cell-based; conditions: human whole blood, read-out: INFg Whole Blood Normalized Agonist EC50;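 further: blood from healthy donors exposed to compound for 1 h before stimulation with anti-CD3 and anti-CD28 at 1 µg/mL each, IFN-γ quantified in supernatant by AlphaLISA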
Protocol: Human Whole Blood IFN-γ Assay
Human venous whole blood (22.5 μL per well), obtained from healthy donors, was pre-treated with compounds for one hour at 37° C. in a humidified 95% air/5% CO2 incubator. The blood was stimulated with 2.5 μL anti-human CD3 and anti-CD28 mAb at a final concentration of 1 μg/mL each for 24 hours at 37° C. IFN-γ in the supernatants was measured using AlphLISA kit (Cat # AL217).

[3] = target: T2, human DGKα (Homo sapiens, UniProt P23743); assay: DGKα LIPGLO assay (extruded liposome substrate), in vitro DGK inhibition; format: biochemical; conditions: read-out: DGKa LIPGLO IC50
T2 construct: TVMV protease cleavage site (C); Hexa-His (C); made in house; host or cells: Sf9 insect cells (baculovirus, Bac-to-Bac)

[4] = anti-CD3 plus anti-CD28, 24 hours, 3 μM reference compound = 100% activation
[5] = Homo sapiens, 24 h, anti-CD3 plus anti-CD28, 24 hours, 3 μM reference compound = 100% activation
[6] = normalized to 3 μM reference compound with anti-CD3 plus anti-CD28 as 100% activation
[7] = Homo sapiens, 24 h, normalized to 3 μM reference compound with anti-CD3 plus anti-CD28 as 100% activation

T1 sequence (Q13574 with tags, fused parts or gaps isoform Q13574-4): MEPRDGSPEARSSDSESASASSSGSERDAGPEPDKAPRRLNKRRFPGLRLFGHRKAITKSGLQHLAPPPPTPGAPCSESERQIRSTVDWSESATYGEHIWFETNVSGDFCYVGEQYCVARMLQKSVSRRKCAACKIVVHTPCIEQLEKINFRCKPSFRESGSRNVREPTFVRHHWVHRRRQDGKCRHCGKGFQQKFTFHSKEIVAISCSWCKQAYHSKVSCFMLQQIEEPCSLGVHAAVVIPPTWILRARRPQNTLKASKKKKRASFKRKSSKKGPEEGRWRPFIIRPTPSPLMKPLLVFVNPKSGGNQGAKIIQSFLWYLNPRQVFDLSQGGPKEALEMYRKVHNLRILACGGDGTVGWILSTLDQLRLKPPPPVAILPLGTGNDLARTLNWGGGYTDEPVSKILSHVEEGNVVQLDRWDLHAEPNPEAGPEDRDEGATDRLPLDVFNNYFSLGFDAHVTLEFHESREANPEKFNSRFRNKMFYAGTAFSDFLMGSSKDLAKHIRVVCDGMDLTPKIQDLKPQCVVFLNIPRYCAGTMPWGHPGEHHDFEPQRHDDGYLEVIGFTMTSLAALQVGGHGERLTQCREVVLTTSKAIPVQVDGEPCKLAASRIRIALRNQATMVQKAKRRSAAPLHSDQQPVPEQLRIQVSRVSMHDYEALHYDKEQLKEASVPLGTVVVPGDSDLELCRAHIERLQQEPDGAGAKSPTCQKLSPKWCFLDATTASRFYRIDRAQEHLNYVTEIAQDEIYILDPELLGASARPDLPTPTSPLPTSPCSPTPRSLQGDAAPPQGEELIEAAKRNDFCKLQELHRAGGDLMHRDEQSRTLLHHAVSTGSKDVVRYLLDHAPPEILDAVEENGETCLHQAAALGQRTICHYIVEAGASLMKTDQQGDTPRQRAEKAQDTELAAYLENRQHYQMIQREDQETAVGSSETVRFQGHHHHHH
T2 sequence (P23743 with tags, fused parts or gaps): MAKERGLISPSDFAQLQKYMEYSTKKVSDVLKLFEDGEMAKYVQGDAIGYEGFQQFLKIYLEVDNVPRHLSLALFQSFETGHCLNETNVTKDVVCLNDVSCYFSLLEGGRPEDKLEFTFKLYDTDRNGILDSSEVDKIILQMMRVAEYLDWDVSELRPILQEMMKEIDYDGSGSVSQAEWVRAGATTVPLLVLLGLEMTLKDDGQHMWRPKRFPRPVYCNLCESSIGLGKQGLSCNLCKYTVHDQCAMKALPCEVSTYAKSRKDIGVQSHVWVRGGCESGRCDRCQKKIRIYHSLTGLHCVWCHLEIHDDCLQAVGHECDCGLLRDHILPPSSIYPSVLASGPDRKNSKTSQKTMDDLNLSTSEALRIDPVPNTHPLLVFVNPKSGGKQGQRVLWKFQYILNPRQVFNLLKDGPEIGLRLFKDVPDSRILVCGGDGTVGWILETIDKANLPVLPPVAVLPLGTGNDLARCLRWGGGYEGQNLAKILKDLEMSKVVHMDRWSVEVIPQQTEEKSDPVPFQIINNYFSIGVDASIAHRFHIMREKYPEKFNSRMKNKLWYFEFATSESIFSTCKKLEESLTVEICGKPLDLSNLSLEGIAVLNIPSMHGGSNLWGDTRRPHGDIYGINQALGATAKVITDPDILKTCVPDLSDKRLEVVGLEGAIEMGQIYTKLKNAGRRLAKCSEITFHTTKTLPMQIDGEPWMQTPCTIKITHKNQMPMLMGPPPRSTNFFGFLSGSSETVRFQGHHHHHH

Compound | IC50 ([1]; DGKζ liposome (LIPGLO) assay) [µM] | EC50 [2, 4] [µM] | IC50 ([3]; DGKα liposome (LIPGLO) assay) [µM] | EC50 [2, 5] [µM] | IC50 ([1]; liposome (LIPGLO) assay) [µM] | EC50 [2, 6] [µM] | IC50 ([3]; liposome (LIPGLO) assay) [µM] | EC50 [2, 7] [µM]
CCc1ccc(C(c2ccc(F)cc2)N2CCN(c3c(C#N)c(=O)n(C)c4ccc(C#N)nc34)C[C@H]2C)cc1 (stereo partly drawn) [Example 885] | 1.2 | 2.4 | 3 |  |  |  |  | 
Cc1cccc(CN2CCN(c3c(C#N)c(=O)n(C)c4ccc(C#N)nc34)C[C@H]2C)n1 [Example 988] | 5.3 |  | 2.8 | 20 |  |  |  | 
C[C@@H]1CN(c2c(C#N)c(=O)n(C)c3ccc(C#N)nc23)CCN1C(c1ccc(F)cc1)c1cccc(F)c1 (stereo partly drawn) [Example 881] | 3 | 2.1 | 5.3 |  |  |  |  | 
CC(c1ccc(C#N)cc1F)N1C[C@H](C)N(c2cc(=O)n(C)c3ccc(C#N)nc23)C[C@H]1C (single isomer, unassigned) [Example 1226] |  |  |  |  | 1.7 | 8.7 | 0.75 | 
COC[C@H]1CN(C(c2ccc(F)cc2)c2ccc(F)cc2)[C@H](C)CN1c1cc(=O)n(C)c2ccc(C#N)nc12 [Example 1421, 8-((2R,5R)-4-(bis(4-fluorophenyl)methyl)-2-(methoxymethyl)-5-methylpiperazin-1-yl)-5-methyl-6-oxo-5,6-dihydro-1,5-naphthyridine-2-carbonitrile] |  |  |  |  | 0.47 |  | 2.1 | 1.5
CC[C@@H]1CN(c2cc(=O)n(C)c3ccc(C#N)nc23)[C@@H](C)CN1C(c1ccc(F)cc1)c1nc(C2CC2)cs1 (single isomer, unassigned) [Example 1339] |  |  |  |  | 0.16 | 0.1 | 0.27 | 
C[C@@H]1CN(c2cc(=O)n(C)c3ccc(C#N)nc23)[C@@H](C)CN1C(c1ccc(F)cc1)c1nc(C(F)F)no1 (stereo partly drawn) [Example 744] | 0.62 | 0.31 | 0.049 |  |  |  |  | 
C[C@@H]1CN(c2cc(=O)n(C)c3ccc(C#N)nc23)[C@@H](C)CN1C(c1ccc(Cl)cc1)c1nc(C2CC2)no1 (single isomer, unassigned) [Example 1285] |  |  |  |  | 0.017 | 0.092 | 0.026 | 
C[C@@H]1CN(c2cc(=O)n(C)c3ccc(C#N)nc23)[C@@H](C)CN1C(c1ccc(Cl)cc1)c1ccc(F)c2c1OC(C)(C)C2 (single isomer, unassigned) [Example 458] |  |  |  |  | 0.11 |  | 1.1 | 0.51
C[C@@H]1CN(c2cc(=O)n(C)c3ccc(C#N)nc23)[C@@H](C)CN1C(c1ccc(F)c(F)c1)c1ccccn1 (mixture of isomers) [Example 366, 8-((2S,5R)-4-((3,4-difluorophenyl)(pyridin-2-yl)methyl)-2,5-dimethylpiperazin-1-yl)-5-methyl-6-oxo-5,6-dihydro-1,5-naphthyridine-2-carbonitrile] |  |  |  |  | 2 |  | 0.57 | 0.49
C[C@@H]1CN(c2c(C#N)c(=O)n(C)c3ccc(C#N)nc23)CCN1Cc1cccc(C#N)n1 [Example 989] | 32 |  | 5.2 | 20 |  |  |  | 
C[C@@H]1CN(c2cc(=O)n(C)c3ccc(C#N)nc23)[C@@H](C)CN1C(c1ccc(F)cc1)C(F)(F)F (single isomer, unassigned) [Example 582] |  |  |  |  | 6 | 1.7 | 0.44 | 
COc1cccc(C(c2ccc(F)cc2)N2C[C@H](C)N(c3cc(=O)n(C)c4ccc(C#N)nc34)C[C@H]2C)c1 (single isomer, unassigned) [Example 660] |  |  |  |  | 0.51 |  | 17 | 0.66
CC(c1cc(C2CC2)on1)N1C[C@H](C)N(c2cc(=O)n(C)c3ccc(C#N)nc23)C[C@H]1C (single isomer, unassigned) [Example 1281] |  |  |  |  | 1.1 | 1.6 | 0.49 | 
CC[C@@H]1CN(c2c(F)c(=O)n(C)c3ccc(C#N)nc23)[C@@H](C)CN1C(C)c1ccc(OC(F)(F)F)cc1 (single isomer, unassigned) [Example 1329] |  |  |  |  | 26 | 3.6 | 1.5 | 
C[C@@H]1CN(c2cc(=O)n(C)c3ccc(C#N)nc23)[C@@H](C)CN1Cc1cc(-c2ccccc2C#N)no1 [Example 1427] |  |  |  |  | 5.2 |  | 21 | 20
CC[C@H]1CN(C(c2ccc(F)cc2)c2cc(C3CC3)on2)[C@H](CC)CN1c1cc(=O)n(C)c2ccc(C#N)nc12 (single isomer, unassigned) [Example 1075] |  |  |  |  | 0.027 | 0.037 | 0.011 | 
COc1ccc(C(c2ccc(F)cc2)N2C[C@H](C)N(c3cc(=O)n(C)c4ccc(C#N)nc34)C[C@H]2C)cc1 (stereo partly drawn) [Example 659] |  |  |  |  | 0.31 | 17 | 1.4 | 
C[C@@H]1CN(c2cc(=O)n(C)c3ccc(C#N)nc23)[C@@H](C)CN1C(c1ccc(F)cc1)c1cc(F)ccn1 (single isomer, unassigned) [Example 473] |  |  |  |  | 4 | 0.88 | 1.7 | 

Compound | IC50 ([1]; DGKζ liposome (LIPGLO) assay) [µM] | EC50 [2, 4] [µM] | IC50 ([3]; DGKα liposome (LIPGLO) assay) [µM] | EC50 [2, 5] [µM] | IC50 ([1]; liposome (LIPGLO) assay) [µM] | EC50 [2, 6] [µM] | IC50 ([3]; liposome (LIPGLO) assay) [µM] | EC50 [2, 7] [µM]
Cc1ccc(C(c2ccc(Cl)cc2)N2CCN(c3c(C#N)c(=O)n(C)c4ccc(C#N)nc34)C[C@H]2C)cc1 (single isomer, unassigned) [Example 945] | 9.3 | 1.6 | 9.8 |  |  |  |  | 
C[C@@H]1CN(c2cc(=O)n(C)c3ccc(C#N)nc23)[C@@H](C)CN1C(c1ccc(F)cc1)c1cocn1 (single isomer, unassigned) [Example 709] |  |  |  |  | 14 | 2.1 | 0.67 | 
Cn1c(=O)c(C#N)c(N2CCN(C(c3ccc(F)cc3)c3ccc(F)cc3)C(CF)C2)c2nc(Br)ccc21 (stereo not drawn) [Example 9, 4-(4-(bis(4-fluorophenyl)methyl)-3-(fluoromethyl)piperazin-1-yl)-6-bromo-1-methyl-2-oxo-1,2-dihydro-1,5-naphthyridine-3-carbonitrile] |  |  |  |  | 9.5 |  | 2.1 | 1.6
CC[C@H]1CN(C(C)c2ccc(C(F)(F)F)cc2F)[C@H](CC)CN1c1cc(=O)n(C)c2ccc(C#N)nc12 (single isomer, unassigned) [Example 1365] |  |  |  |  | 0.48 | 2.2 | 0.48 | 
CCC(c1ccc(OC(F)(F)F)cc1F)N1C[C@H](CC)N(c2cc(=O)n(C)c3ccc(C#N)nc23)C[C@H]1C (single isomer, unassigned) [Example 1377] |  |  |  |  | 0.27 | 2 | 0.029 | 
C[C@@H]1CN(c2cc(=O)n(C)c3ccc(C#N)nc23)[C@@H](C)CN1C(c1ccc(F)cn1)c1cccc2c1OC(C)(C)C2 (single isomer, unassigned) [Example 465] |  |  |  |  | 0.98 |  | 0.2 | 20
CCc1ccc(C(c2ccc(F)cc2)N2CCN(c3c(C#N)c(=O)n(C)c4ccc(C#N)nc34)C[C@H]2C)cc1 (stereo partly drawn) [Example 884] | 2.4 |  | 4.6 | 2.2 |  |  |  | 
C[C@H]1CN(C(c2ccc(F)cc2)c2ccc(C(F)(F)F)cn2)[C@H](CO)CN1c1cc(=O)n(C)c2ccc(C#N)nc12 (single isomer, unassigned) [Example 1388] |  |  |  |  | 2.8 |  | 1.1 | 0.88
COc1ncccc1C(c1ccc(F)cc1)N1CCN(c2c(C#N)c(=O)n(C)c3ccc(C#N)nc23)C[C@H]1C (single isomer, unassigned) [Example 895] | 2.7 | 1.8 | 0.71 |  |  |  |  | 
CC[C@@H]1CN(c2cc(=O)n(C)c3ccc(C#N)nc23)[C@@H](C)CN1C(C)c1ccc(OC(F)F)cc1 (stereo partly drawn) [Example 1344] |  |  |  |  | 0.016 | 0.051 | 0.0044 | 
CC(c1ccc(OC(F)(F)F)cc1)N1C[C@H](C)N(c2c(C#N)c(=O)n(C)c3ccc(C#N)nc23)C[C@H]1C (single isomer, unassigned) [Example 802] | 24 | 10 | 1.3 |  |  |  |  | 
C[C@@H]1CN(c2cc(=O)n(C)c3ccc(C#N)nc23)[C@@H](C)CN1C(c1ccc(F)cc1)c1nnc(C2CC2)o1 (single isomer, unassigned) [Example 763] | 0.76 |  | 4.5 | 1.8 |  |  |  | 
CC[C@@H]1CN(c2cc(=O)n(C)c3ccc(C#N)nc23)[C@@H](C)CN1C(C)c1ccc(F)c(F)c1 (single isomer, unassigned) [Example 1091] |  |  |  |  | 0.11 | 0.14 | 0.23 | 
COC[C@@H]1CN(c2cc(=O)n(C)c3ccc(C#N)nc23)[C@@H](C)CN1C(c1ccc(F)cc1)c1ccc(C(F)(F)F)cn1 (stereo partly drawn) [Example 1402] |  |  |  |  | 0.1 | 0.26 | 0.3 | 
C[C@@H]1CN(c2cc(=O)n(C)c3ccc(C#N)nc23)[C@@H](C)CN1C(c1ccc(F)cc1)C(F)(F)CO (single isomer, unassigned) [Example 1310] |  |  |  |  | 7.5 |  | 6.2 | 3.6
CC(C)Oc1ccc(C(c2cccc(F)c2)N2C[C@H](C)N(c3cc(=O)n(C)c4ccc(C#N)nc34)C[C@H]2C)nc1 (stereo partly drawn) [Example 691] |  |  |  |  | 0.56 | 2.7 | 4.5 | 
CC[C@H]1CN(C(C)c2ccc(C(F)(F)F)cc2)[C@H](C)CN1c1cc(=O)n(C)c2ccc(C#N)nc12 (single isomer, unassigned) [Example 1143] |  |  |  |  | 13 | 4 | 1.4 | 
CC[C@@H]1CN(c2cc(=O)n(C)c3ccc(C#N)nc23)[C@@H](C)CN1C(c1ccc(F)cc1)c1cccc(C(F)(F)F)n1 (stereo partly drawn) [Example 1112] |  |  |  |  | 0.15 | 0.17 | 1.2 | 
